Data on 26 compounds can be found in US20250213705A1, “PSMA TARGETING LIGANDS AND METHODS OF USE” (Bright Peak Therapeutics AG, priority 2023, published 2025).

Numbered stars: 1 amine (or outer) side, 2 acyl side, 3 side chain; on linkers, the order of the positions; unused ones are H or OH. Square brackets hold non-standard residues; d marks the D form. Side chains are listed from the residue outwards. Peptide text beside a SMILES is read from it. 2Nal = N[C@@H](Cc1ccc2ccccc2c1)C(=O)O; Trx = NC[C@H]1CC[C@H](C(=O)O)CC1; PEG3 = NCCOCCOCCOCCC(=O)O; Dap = NC[C@H](N)C(=O)O; CO = O=C([*:1])[*:2]

In the assay the target is Recombinant Human PSMA/FOLH1 Protein (Homo sapiens (Human), UniProt Q04609). In words: Inhibition assay (Amplex Red glutamic acid/glutamate oxidase, NAAG substrate). The assay is classed as biochemical. The following applies: Target PSMA, average of N replicates; for IC50: PSMA 5 nM, NAAG 40 μM; for Ki: calculated based on Cheng-Prusoff equation. The protocol:
Amplex™ Red Glutamic Acid/Glutamate Oxidase Assay Kit Catalog number: A12221 (Thermofisher); Recombinant Human PSMA/FOLH1 Protein, CF (rnd systems); N-Acetyl-Asp-Glu (NAAG) (Sigma Aldrich; 96 well half area plate; Enspire plate reader.
Prepare a working solution of 100 μM Amplex® Red reagent containing 0.25 U/mL HRP, 0.08 U/mL L-glutamate oxidase, 0.5 U/mL 1-glutamate-pyruvate transaminase, 200 μM L-alanine and keep protected from light. […] Final concentration is 5 nM. Transfer 10 μl/well of the inhibitor solution previously prepared in a separate 96 wells/plate.
Pipette 20 μl/well of the working solution prepared above. Incubate the reactions for 30 min at 37° C., protected from light. Because the assay is continuous (not terminated), fluorescence may be measured at multiple time points to follow the kinetics of the reactions. Measure the fluorescence in a fluorescence microplate reader using excitation in the range of 530-560 nm and emission detection at ˜590 nm. Ec50s were determined with GraphPad Prism. Ki is calculated based on Cheng-Prusoff equation.

Sequence of Recombinant Human PSMA/FOLH1 Protein (Q04609 whole entry): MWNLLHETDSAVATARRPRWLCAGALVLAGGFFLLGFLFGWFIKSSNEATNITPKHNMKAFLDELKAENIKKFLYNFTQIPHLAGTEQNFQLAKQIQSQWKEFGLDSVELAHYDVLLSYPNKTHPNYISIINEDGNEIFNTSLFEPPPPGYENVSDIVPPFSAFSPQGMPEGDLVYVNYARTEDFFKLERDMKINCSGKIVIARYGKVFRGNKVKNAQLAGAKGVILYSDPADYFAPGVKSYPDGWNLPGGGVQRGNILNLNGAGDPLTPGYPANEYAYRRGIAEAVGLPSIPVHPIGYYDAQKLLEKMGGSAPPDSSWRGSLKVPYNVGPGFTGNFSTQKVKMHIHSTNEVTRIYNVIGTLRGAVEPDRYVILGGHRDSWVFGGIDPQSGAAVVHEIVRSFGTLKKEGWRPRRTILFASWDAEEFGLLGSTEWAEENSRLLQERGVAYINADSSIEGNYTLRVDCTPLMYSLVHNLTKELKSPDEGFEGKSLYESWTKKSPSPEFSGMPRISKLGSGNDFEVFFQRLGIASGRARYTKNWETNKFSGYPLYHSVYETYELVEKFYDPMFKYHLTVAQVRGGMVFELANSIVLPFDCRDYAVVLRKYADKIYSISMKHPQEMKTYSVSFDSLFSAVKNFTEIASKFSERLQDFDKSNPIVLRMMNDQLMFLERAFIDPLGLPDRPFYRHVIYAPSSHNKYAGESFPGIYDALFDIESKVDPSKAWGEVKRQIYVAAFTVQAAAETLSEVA

As to `CC(=O)NCCOCCOCCOCCC(=O)NC[C@H]1CC[C@H](C(=O)N[C@@H](Cc2ccc3ccccc3c2)C(=O)NCCCC[C@H](NC(=O)N[C@@H](Cc2cnc[nH]2)C(=O)O)C(=O)O)CC1` (stereo in doubt) [Compound 29], the IC50 – broadly, the concentration at which inhibition is half-maximal – was determined as 576 µM; the inhibition constant (Ki) (usually the dissociation constant of the complex between target and ligand, obtained from inhibition or displacement) was 4.12 µM.

As to `CC(=O)NCCOCCOCCOCCC(=O)NC[C@H]1CC[C@H](C(=O)N[C@@H](CC(C)C)C(=O)NCCCC[C@H](NC(=O)N[C@@H](CCC(=O)O)C(=O)O)C(=O)O)CC1` [Compound 1], the IC50 amounted to 2.39 µM and the Ki was 0.0171 µM.

Consider `CC(=O)NCCOCCOCCOCCC(=O)NC[C@H]1CC[C@H](C(=O)N[C@@H](Cc2ccc(O)cc2)C(=O)NCCCC[C@H](NC(=O)N[C@@H](CCC(=O)O)C(=O)O)C(=O)O)CC1` [Compound 3], for which the IC50 was 0.421 µM and the Ki was 0.00301 µM.

Consider `CC(=O)NCCOCCOCCOCCC(=O)NC[C@H]1CC[C@H](C(=O)N[C@@H](C)C(=O)NCCCC[C@H](NC(=O)N[C@@H](CCC(=O)O)C(=O)O)C(=O)O)CC1` [Compound 4], for which the IC50 was determined as 0.537 µM and the Ki is 0.00384 µM.

Take `CC(=O)NCCOCCOCCOCCC(=O)NC[C@H]1CC[C@H](C(=O)N[C@@H](CCCCN)C(=O)NCCCC[C@H](NC(=O)N[C@@H](CCC(=O)O)C(=O)O)C(=O)O)CC1` [Compound 6]: the IC50 was found to be 58.2 µM and the Ki is 0.416 µM.

Take `CC(=O)NCCOCCOCCOCCC(=O)NC[C@H]1CC[C@H](C(=O)N[C@@H](Cc2c[nH]cn2)C(=O)NCCCC[C@H](NC(=O)N[C@@H](CCC(=O)O)C(=O)O)C(=O)O)CC1` [Compound 9]: the IC50 was found to be 1.08 µM and the Ki is 0.00774 µM.

For `CC(=O)NCCOCCOCCOCCC(=O)NC[C@H]1CC[C@H](C(=O)N[C@@H](Cc2cn(C)cn2)C(=O)NCCCC[C@H](NC(=O)N[C@@H](CCC(=O)O)C(=O)O)C(=O)O)CC1` [Compound 11], the IC50 turned out to be 3.24 µM and the Ki was 0.0232 µM.

In the case of `CC(=O)NCCOCCOCCOCCC(=O)NC[C@H]1CC[C@H](C(=O)N[C@@H](Cc2ccc(F)cc2)C(=O)NCCCC[C@H](NC(=O)N[C@@H](CCC(=O)O)C(=O)O)C(=O)O)CC1` [Compound 13], the IC50 was 0.951 µM and the Ki is 0.0068 µM.

With `CC(=O)NCCOCCOCCOCCC(=O)NC[C@H]1CC[C@H](C(=O)N[C@@H](Cc2ccc(N=[N+]=[N-])cc2)C(=O)NCCCC[C@H](NC(=O)N[C@@H](CCC(=O)O)C(=O)O)C(=O)O)CC1` [Compound 15], the IC50 worked out at 0.935 µM and the Ki was 0.00668 µM.

As to `CC(=O)NCCOCCOCCOCCC(=O)NC[C@H]1CC[C@H](C(=O)N[C@H](Cc2ccccc2)C(=O)NCCCC[C@H](NC(=O)N[C@@H](CCC(=O)O)C(=O)O)C(=O)O)CC1` [Compound 18], the IC50 is 0.54 µM and the Ki is 0.00386 µM.

Regarding `CC(=O)NCCOCCOCCOCCC(=O)NC[C@H]1CC[C@H](C(=O)N[C@@H](CC2CCCCC2)C(=O)NCCCC[C@H](NC(=O)N[C@@H](CCC(=O)O)C(=O)O)C(=O)O)CC1` [Compound 19], the IC50 was found to be 2.16 µM and the Ki was 0.0154 µM.

For the compound `CC(=O)NCCOCCOCCOCCC(=O)NC[C@H]1CC[C@H](C(=O)N[C@@H](CCCC(=O)O)C(=O)NCCCC[C@H](NC(=O)N[C@@H](CCC(=O)O)C(=O)O)C(=O)O)CC1` [Compound 20], the IC50 was 1.49 µM and the Ki was 0.0107 µM.

As to `CC(=O)NCCOCCOCCOCCC(=O)NC[C@H]1CC[C@H](C(=O)N[C@@H](Cc2c[nH]c3ncccc23)C(=O)NCCCC[C@H](NC(=O)N[C@@H](CCC(=O)O)C(=O)O)C(=O)O)CC1` [Compound 22], the IC50 worked out at 0.488 µM and the Ki is 0.00349 µM.

As for `CC(=O)NCCOCCOCCOCCC(=O)NC[C@H]1CC[C@H](C(=O)N[C@@H](Cc2ccc3ccccc3c2)C(=O)NCCCC[C@H](NC(=O)N[C@@H](Cc2ccc(O)cc2)C(=O)O)C(=O)O)CC1` [Compound 25], the IC50 was 44.6 µM and the Ki was 0.319 µM.

Consider `CC(=O)NCCOCCOCCOCCC(=O)NC[C@H]1CC[C@H](C(=O)N[C@@H](Cc2ccc3ccccc3c2)C(=O)NCCCC[C@H](NC(=O)N[C@@H](CC(C)C)C(=O)O)C(=O)O)CC1` [Compound 26], for which the IC50 was determined as 1550 µM and the Ki was 11 µM.

In the case of `CSCC[C@H](NC(=O)N[C@@H](CCCCNC(=O)[C@H](Cc1ccc2ccccc2c1)NC(=O)[C@H]1CC[C@H](CNC(=O)CCOCCOCCOCCNC(C)=O)CC1)C(=O)O)C(=O)O` [Compound 27], the IC50 turned out to be 191 µM and the Ki is 1.37 µM.

In the case of `CC(=O)NCCOCCOCCOCCC(=O)NC[C@H]1CC[C@H](C(=O)N[C@@H](Cc2ccc3ccccc3c2)C(=O)NCCCC[C@H](NC(=O)N[C@@H](Cc2cccc(C(=O)O)c2)C(=O)O)C(=O)O)CC1` [Compound 30], the concentration for half-maximal inhibition (IC50) stood at 602 µM and the Ki is 4.3 µM.

As to `CC(=O)NCCOCCOCCOCCC(=O)NC[C@H]1CC[C@H](C(=O)N[C@@H](Cc2ccc3ccccc3c2)C(=O)NCCCC[C@H](NC(=O)N[C@@H](Cc2ccc(C(=O)O)cc2)C(=O)O)C(=O)O)CC1` [Compound 31], the IC50 worked out at 260 µM and the Ki is 1.86 µM.

On to `CC(=O)NCCOCCOCCOCCC(=O)NC[C@H]1CC[C@H](C(=O)N[C@@H](Cc2ccc3ccccc3c2)C(=O)NCC(=O)N[C@@H](CNC(=O)N[C@@H](CCC(=O)O)C(=O)O)C(=O)O)CC1` [Compound 32] (Ac-[PEG3][Trx][2Nal]G[Dap]([CO-Glu])-OH), for which the IC50 worked out at 434 µM and the Ki was 3.1 µM.

As to `CC(=O)NCCOCCOCCOCCC(=O)NC[C@H]1CC[C@H](C(=O)N[C@@H](Cc2ccc3ccccc3c2)C(=O)NCCCC(=O)N[C@@H](CNC(=O)N[C@@H](CCC(=O)O)C(=O)O)C(=O)O)CC1` [Compound 33], the IC50 amounted to 583 µM and the Ki was 4.17 µM.

Turning to `CC(=O)NCCOCCOCCOCCC(=O)NC[C@H]1CC[C@H](C(=O)N[C@H](Cc2c[nH]cn2)C(=O)NCCCC[C@H](NC(=O)N[C@@H](CCC(=O)O)C(=O)O)C(=O)O)CC1` [Compound 42], the IC50 was found to be 2.24 µM and the inhibition constant (Ki) is 0.016 µM.

Take `CC(=O)NCCOCCOCCOCCC(=O)NC[C@H]1CC[C@H](C(=O)N[C@H](Cc2ccc(O)cc2)C(=O)NCCCC[C@H](NC(=O)N[C@@H](CCC(=O)O)C(=O)O)C(=O)O)CC1` [Compound 43]: the IC50 stood at 0.679 µM and the Ki is 0.00486 µM.

Turning to `CC(=O)NCCOCCOCCOCCC(=O)NC[C@H]1CC[C@H](C(=O)N[C@@H](Cc2ccncc2)C(=O)NCCCC[C@H](NC(=O)N[C@@H](CCC(=O)O)C(=O)O)C(=O)O)CC1` [Compound 44], the IC50 turned out to be 0.177 µM and the Ki is 0.00127 µM.

Take `CC(=O)NCCOCCOCCOCCC(=O)NC[C@H]1CC[C@H](C(=O)N[C@@H](Cc2cscn2)C(=O)NCCCC[C@H](NC(=O)N[C@@H](CCC(=O)O)C(=O)O)C(=O)O)CC1` [Compound 45]: the IC50 was 0.554 µM and the Ki is 0.00396 µM.

Turning to `CC(=O)NCCOCCOCCOCCC(=O)NC[C@H]1CC[C@H](C(=O)N[C@H](CC(=O)NCCCC[C@H](NC(=O)N[C@@H](CCC(=O)O)C(=O)O)C(=O)O)Cc2ccccc2)CC1` [Compound 46], the IC50 came to 0.446 µM and the Ki is 0.00319 µM.

For the compound `CC(=O)NCCOCCOCCOCCC(=O)NC[C@H]1CC[C@H](C(=O)N[C@@H](CCCOc2cc(C#N)cc(C#N)c2)C(=O)NCCCC[C@H](NC(=O)N[C@@H](CCC(=O)O)C(=O)O)C(=O)O)CC1` [Compound 47], the IC50 is 2.06 µM and the inhibition constant Ki is 0.0147 µM.
